Key:
[1] = target: recombinant human FLAP protein (Homo sapiens (Human), UniProt P20292); assay: FLAP binding assay (Scintillation Proximity Assay, displacement of [125I]L-691,831); conditions: read-out: FLAP SPA IC50
Procedure, shortened: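 Scintillation proximity displacement of an iodinated (125I) FLAP inhibitor by test compounds, using 100,000×g membrane fraction from lysed cells. Final beads 200 μg/well and protein 5 μg/well; plates shaken 2 h before reading.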

[2] = test system: synthesis of LTB4 in human whole blood; assay: Human whole blood LTB4 production inhibition assay; type: cell-based; conditions: calcimycin stimulated, read-out: hWB LTB4 IC50
Procedure, shortened: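 Whole-blood cellular format, heparinized human donors: 15 min compound pretreatment, then 30 min calcimycin stimulation (20 μM final), both at 37° C. Low-speed centrifugation yields plasma, in which LTB4 is read by homogeneous time-resolved fluorescence immunoassay.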

Sequence of recombinant human FLAP protein (P20292 whole entry): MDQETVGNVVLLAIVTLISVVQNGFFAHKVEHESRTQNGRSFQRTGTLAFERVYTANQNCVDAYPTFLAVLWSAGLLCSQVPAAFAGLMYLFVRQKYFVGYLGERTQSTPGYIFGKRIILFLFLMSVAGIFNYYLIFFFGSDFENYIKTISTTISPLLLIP

SMILES	IC50 [1] [µM]	IC50 [2] [µM]
Cn1cc(-c2nc(C3(c4ccc(-c5cnc(N)nc5)cn4)CCC3)no2)cn1 [Example 134, 5-(6-{1-[5-(1-methyl-1H-pyrazol-4-yl)-1,2,4-oxadiazol-3-yl]cyclobutyl}pyridin-3-yl)pyrimidin-2-amine]	0.081	0.79
Cc1cc(-c2nc(C3(c4ccc(-c5cnc(N)nc5)cn4)CCOCC3)no2)n(C)n1 [Example 136, 5-(6-{4-[5-(1,3-dimethyl-1H-pyrazol-5-yl)-1,2,4-oxadiazol-3-yl]tetrahydro-2H-pyran-4-yl}pyridin-3-yl)pyrimidin-2-amine]	0.54	> 5
Nc1ncc(-c2ccc(C3(c4noc(-c5cccnc5)n4)CCOCC3)nc2)cn1 [Example 137, 5-(6-{4-[5-(pyridin-3-yl)-1,2,4-oxadiazol-3-yl]tetrahydro-2H-pyran-4-yl}pyridin-3-yl)pyrimidin-2-amine]	0.58	3
Nc1ncc(-c2ccc(C3(c4noc(-c5ccncc5)n4)CCOCC3)nc2)cn1 [Example 138, 5-(6-{4-[5-(pyridin-4-yl)-1,2,4-oxadiazol-3-yl]tetrahydro-2H-pyran-4-yl}pyridin-3-yl)pyrimidin-2-amine]	0.97	> 5
Nc1ncc(-c2ccc(C3(c4noc(-c5cnn(C6CCS(=O)(=O)C6)c5)n4)CCC3)cn2)cn1 (stereo not shown) [Example 139, 5-[5-(1-{5-[1-(1,1-dioxidotetrahydrothiophen-3-yl)-1H-pyrazol-4-yl]-1,2,4-oxadiazol-3-yl}cyclobutyl)pyridin-2-yl]pyrimidin-2-amine]	0.028	0.34
Nc1ncc(-c2ccc(C3(c4noc(-c5cnn(CCN6CCOCC6)c5)n4)CCC3)cn2)cn1 [Example 140, 5-{5-[1-(5-{1-[2-(morpholin-4-yl)ethyl]-1H-pyrazol-4-yl}-1,2,4-oxadiazol-3-yl)cyclobutyl]pyridin-2-yl}pyrimidin-2-amine]	0.015	0.11
N#CCn1cc(-c2nc(C3(c4ccc(-c5cnc(N)nc5)nc4)CCC3)no2)cn1 [Example 141, [4-(3-{1-[6-(2-aminopyrimidin-5-yl)pyridin-3-yl]cyclobutyl}-1,2,4-oxadiazol-5-yl)-1H-pyrazol-1-yl]acetonitrile]	0.011	0.085
CN(C)CCn1cc(-c2nc(C3(c4ccc(-c5cnc(N)nc5)nc4)CCC3)no2)cn1 [Example 142, 5-{5-[1-(5-{1-[2-(dimethylamino)ethyl]-1H-pyrazol-4-yl}-1,2,4-oxadiazol-3-yl)cyclobutyl]pyridin-2-yl}pyrimidin-2-amine]	0.016	0.25
CN(C(=O)Cn1cc(-c2nc(C3(c4ccc(-c5cnc(N)nc5)nc4)CCC3)no2)cn1)C(C)(C)C [Example 143, 2-[4-(3-{1-[6-(2-aminopyrimidin-5-yl)pyridin-3-yl]cyclobutyl}-1,2,4-oxadiazol-5-yl)-1H-pyrazol-1-yl]-N-tert-butyl-N-methylacetamide]	0.014	0.26
Nc1cnc(-c2ccc(C3(c4noc(-c5cnn(C6COC6)c5)n4)CCC3)cn2)cn1 [Example 145]	0.0083	0.029
CC(C)(O)Cn1cc(-c2nc(C3(c4ccc(-c5cnc(N)cn5)nc4)CCC3)no2)cn1 [Example 146, 1-[4-(3-{1-[6-(5-amino-pyrazin-2-yl)-pyridin-3-yl]-cyclobutyl}-[1,2,4]oxadiazol-5-yl)-pyrazol-1-yl]-2-methyl-propan-2-ol]	0.015	0.043
CC(C)(Cn1cc(-c2nc(C3(c4ccc(-c5cnc(N)nc5)nc4)CCC3)no2)cn1)C(N)=O [Example 147, 3-[4-(3-{1-[6-(2-amino-pyrimidin-5-yl)-pyridin-3-yl]-cyclobutyl}-[1,2,4]oxadiazol-5-yl)-pyrazol-1-yl]-2,2-dimethyl-propionamide]	0.065	0.34
CC(C)(C#N)Cn1cc(-c2nc(C3(c4ccc(-c5cnc(N)nc5)nc4)CCC3)no2)cn1 [Example 148, 3-[4-(3-{1-[6-(2-amino-pyrimidin-5-yl)-pyridin-3-yl]-cyclobutyl}-[1,2,4]oxadiazol-5-yl)-pyrazol-1-yl]-2,2-dimethyl-propionitrile]	0.025	0.2
CC(C)(C(N)=O)n1cc(-c2nc(C3(c4ccc(-c5cnc(N)nc5)nc4)CCC3)no2)cn1 [Example 149, 2-[4-(3-{1-[6-(2-amino-pyrimidin-5-yl)-pyridin-3-yl]-cyclobutyl}-[1,2,4]oxadiazol-5-yl)-pyrazol-1-yl]-isobutyramide]	0.16	0.43
CC(C)(N)Cn1cc(-c2nc(C3(c4ccc(-c5cnc(N)nc5)nc4)CCC3)no2)cn1 [Example 150, 5-[5-(1-{5-[1-(2-amino-2-methyl-propyl)-1H-pyrazol-4-yl]-[1,2,4]oxadiazol-3-yl}-cyclobutyl)-pyridin-2-yl]-pyrimidin-2-ylamine]	0.068	0.37
CC(C)(C#N)n1cc(-c2nc(C3(c4ccc(-c5cnc(N)nc5)nc4)CCC3)no2)cn1 [Example 151, 2-[4-(3-{1-[6-(2-amino-pyrimidin-5-yl)-pyridin-3-yl]-cyclobutyl}-[1,2,4]oxadiazol-5-yl)-pyrazol-1-yl]-2-methyl-propionitrile]	0.018	0.094
Nc1ccc(-c2ccc(C3(c4noc(-c5cnn(C6COC6)c5)n4)CCC3)cn2)cn1 [Example 152, 5-{1-[5-(1-oxetan-3-yl-1H-pyrazol-4-yl)-[1,2,4]oxadiazol-3-yl]-cyclobutyl}-[2,3′]bipyridinyl-6′-ylamine]	0.013	0.1
CC(C)(O)Cn1cc(-c2nc(C3(c4ccc(-c5ccc(N)nc5)nc4)CCC3)no2)cn1 [Example 153, 1-(4-{3-[1-(6′-amino-[2,3′]bipyridinyl-5-yl)-cyclobutyl]-[1,2,4]oxadiazol-5-yl}-pyrazol-1-yl)-2-methyl-propan-2-ol]	0.034	0.19
Nc1ncc(-c2ccc(C3(c4noc(N5CCC(O)CC5)n4)CCC3)cn2)cn1 [Example 154, 1-(3-{1-[6-(2-Amino-pyrimidin-5-yl)-pyridin-3-yl]-cyclobutyl}-[1,2,4]oxadiazol-5-yl)-piperidin-4-ol]	0.17	0.59

Now from value to compound:

IC50 [1] [µM]	IC50 [2] [µM]	SMILES
0.063	0.55	Nc1ncc(-c2ccc(C3(c4noc(-c5cnn(CC(=O)NC6CC6)c5)n4)CCC3)cn2)cn1 [Example 155, 2-[4-(3-{1-[6-(2-Amino-pyrimidin-5-yl)-pyridin-3-yl]-cyclobutyl}-[1,2,4]oxadiazol-5-yl)-pyrazol-1-yl]-N-cyclopropyl-acetamide]
0.097	0.62	Nc1ncc(-c2ccc(C3(c4noc(-c5cnn(CC(=O)NCC6CCCO6)c5)n4)CCC3)cn2)cn1 (stereo not shown) [Example 156, 2-[4-(3-{1-[6-(2-amino-pyrimidin-5-yl)-pyridin-3-yl]-cyclobutyl}-[1,2,4]oxadiazol-5-yl)-pyrazol-1-yl]-N-(tetrahydro-furan-2-ylmethyl)-acetamide]
0.079	0.56	CC(C)NC(=O)Cn1cc(-c2nc(C3(c4ccc(-c5cnc(N)nc5)nc4)CCC3)no2)cn1 [Example 157, 2-[4-(3-{1-[6-(2-amino-pyrimidin-5-yl)-pyridin-3-yl]-cyclobutyl}-[1,2,4]oxadiazol-5-yl)-pyrazol-1-yl]-N-isopropyl-acetamide]
0.083	0.51	CN(CC1CCCO1)C(=O)Cn1cc(-c2nc(C3(c4ccc(-c5cnc(N)nc5)nc4)CCC3)no2)cn1 (stereo not shown) [Example 159, 2-[4-(3-{1-[6-(2-amino-pyrimidin-5-yl)-pyridin-3-yl]-cyclobutyl}-[1,2,4]oxadiazol-5-yl)-pyrazol-1-yl]-N-methyl-N-(tetrahydro-furan-2-ylmethyl)-acetamide]
0.095	0.54	CN(C(=O)Cn1cc(-c2nc(C3(c4ccc(-c5cnc(N)nc5)nc4)CCC3)no2)cn1)C1CC1 [Example 160, 2-[4-(3-{1-[6-(2-amino-pyrimidin-5-yl)-pyridin-3-yl]-cyclobutyl}-[1,2,4]oxadiazol-5-yl)-pyrazol-1-yl]-N-cyclopropyl-N-methyl-acetamide]
0.25	1.1	COC1CCN(C(=O)Cn2cc(-c3nc(C4(c5ccc(-c6cnc(N)nc6)nc5)CCC4)no3)cn2)C1 (stereo not shown) [Example 161, 2-[4-(3-{1-[6-(2-amino-pyrimidin-5-yl)-pyridin-3-yl]-cyclobutyl}-[1,2,4]oxadiazol-5-yl)-pyrazol-1-yl]-1-(3-methoxy-pyrrolidin-1-yl)-ethanone]
0.13	0.49	CCN(C)C(=O)Cn1cc(-c2nc(C3(c4ccc(-c5cnc(N)nc5)nc4)CCC3)no2)cn1 [Example 162, 2-[4-(3-{1-[6-(2-amino-pyrimidin-5-yl)-pyridin-3-yl]-cyclobutyl}-[1,2,4]oxadiazol-5-yl)-pyrazol-1-yl]-N-ethyl-N-methyl-acetamide]
0.11	0.3	CN(C)C(=O)Cn1cc(-c2nc(C3(c4ccc(-c5ccc(N)nc5)nc4)CCC3)no2)cn1 [Example 163, 2-(4-{3-[1-(6′-amino-[2,3′]bipyridinyl-5-yl)-cyclobutyl]-[1,2,4]oxadiazol-5-yl}-pyrazol-1-yl)-N,N-dimethyl-acetamide]
0.043	0.17	CN(C)C(=O)Cn1cc(-c2nc(C3(c4ccc(-c5cnc(N)cn5)nc4)CCC3)no2)cn1 [Example 164, 2-[4-(3-{1-[6-(5-amino-pyrazin-2-yl)-pyridin-3-yl]-cyclobutyl}-[1,2,4]oxadiazol-5-yl)-pyrazol-1-yl]-N,N-dimethyl-acetamide]
0.073	0.28	CNc1ncc(-c2ccc(C3(c4noc(-c5cnn(CC(C)(C)O)c5)n4)CCC3)cn2)cn1 [Example 165, 2-Methyl-1-[4-(3-{1-[6-(2-methylamino-pyrimidin-5-yl)-pyridin-3-yl]-cyclobutyl}-[1,2,4]oxadiazol-5-yl)-pyrazol-1-yl]-propan-2-ol]

From patent US8575201B2 (Boehringer Ingelheim International GmbH, priority 2010, dated 2013)
